According to the NIST ThermoML archive (doi:10.1016/j.jct.2011.01.016):

Experiments:
[1] = 101.33 kPa, Liquid; for viscosity: Concentric cylinders viscometry; for mass density: Vibrating tube method
[2] = xn = mol fraction of the nth substance listed; details: 100 kPa, Liquid; for viscosity: Concentric cylinders viscometry; for mass density: Vibrating tube method

CCCCCCCCCCCCCC[P+](CCCCCC)(CCCCCC)CCCCCC.N#C[N-]C#N [tetradecyl(trihexyl)phosphonium dicyanamide]
[1]
Details | mass density [kg/m3] | viscosity [mPa·s]
278.15 K | 910.8 | 1646.8
283.15 K | 907.8 | 1144.9
288.15 K | 904.9 | 816.36
293.15 K | 901.9 | 592.93
298.15 K | 899 | 438.57
303.15 K | 896.1 | 329.68
308.15 K | 893.3 | 251.71
313.15 K | 890.4 | 195
318.15 K | 887.6 | 153.15
323.15 K | 884.8 | 121.78
328.15 K | 882 | 97.96
333.15 K | 879.2 | 79.73
338.15 K | 876.4 | 65.56
343.15 K | 873.7 | 54.43
348.15 K | 870.9 | 45.6
353.15 K | 868.1 | 38.53
358.15 K | 865.3 | 32.85
363.15 K | 862.6 | 28.2

CCCCCCCCCCCCCC[P+](CCCCCC)(CCCCCC)CCCCCC.CS(=O)(=O)[O-] [trihexyltetradecylphosphonium methanesulfonate]
[1]
Details | mass density [kg/m3] | viscosity [mPa·s]
278.15 K | 940.5 | 7526.5
283.15 K | 937.4 | 4689.7
288.15 K | 934.3 | 3040.4
293.15 K | 931.2 | 2022.2
298.15 K | 928.1 | 1379.4
303.15 K | 925.1 | 962.83
308.15 K | 922 | 686.13
313.15 K | 918.9 | 498.53
318.15 K | 915.9 | 369.02
323.15 K | 912.9 | 277.77
328.15 K | 909.9 | 212.37
333.15 K | 907 | 164.79
338.15 K | 904.1 | 129.63
343.15 K | 901.2 | 103.34
348.15 K | 898.3 | 83.37
353.15 K | 895.3 | 68.01
358.15 K | 892.4 | 56.06
363.15 K | 889.4 | 46.65

CCCCCCCCCCCCCC[P+](CCCCCC)(CCCCCC)CCCCCC.O=S(=O)([N-]S(=O)(=O)C(F)(F)F)C(F)(F)F
[1]
Details | mass density [kg/m3] | viscosity [mPa·s]
278.15 K | 1081.1 | 1246.2
283.15 K | 1077.4 | 871.17
288.15 K | 1073.6 | 622.45
293.15 K | 1069.8 | 453.64
298.15 K | 1066.1 | 336.74
303.15 K | 1062.4 | 254.24
308.15 K | 1058.8 | 195.04
313.15 K | 1055.2 | 151.85
318.15 K | 1051.6 | 119.85
323.15 K | 1048 | 95.81
328.15 K | 1044.4 | 77.55
333.15 K | 1040.9 | 63.47
338.15 K | 1037.3 | 52.49
343.15 K | 1033.7 | 43.84
348.15 K | 1030.2 | 36.95
353.15 K | 1026.6 | 31.41
358.15 K | 1023.1 | 26.91

CCCCCCCCCCCCCC[P+](CCCCCC)(CCCCCC)CCCCCC.CS(=O)(=O)[O-] [trihexyltetradecylphosphonium methanesulfonate] + O
[2], x2 = 0.825
Details | mass density [kg/m3] | viscosity [mPa·s]
298.15 K | 935.1 | 126.55
303.15 K | 931.8 | 97.43
308.15 K | 928.4 | 76.18
313.15 K | 925.1 | 60.41
318.15 K | 921.7 | 48.54
323.15 K | 918.4 | 39.48
328.15 K | 915 | 32.49
333.15 K | 911.6 | 27.02
338.15 K | 908.2 | 22.69
343.15 K | 904.8 | 19.23
348.15 K | 901.4 | 16.45
353.15 K | 898 | 14.16
358.15 K | 894.6 | 12.28
363.15 K | 891.2 | 10.71

CCCCCCCCCC(=O)[O-].CCCCCCCCCCCCCC[P+](CCCCCC)(CCCCCC)CCCCCC [trihexyltetradecylphosphonium decanoate] + O
[2], x2 = 0.872
Details | mass density [kg/m3] | viscosity [mPa·s]
298.15 K | 901.2 | 90.95
303.15 K | 897.8 | 70.57
308.15 K | 894.5 | 55.66
313.15 K | 891.1 | 44.65
318.15 K | 887.7 | 36.26
323.15 K | 884.3 | 29.77
328.15 K | 880.9 | 24.65
333.15 K | 877.5 | 20.59
338.15 K | 874 | 17.35
343.15 K | 870.6 | 14.72
348.15 K | 867.1 | 12.57
353.15 K | 863.7 | 10.8
358.15 K | 860.2 | 9.345
363.15 K | 856.8 | 8.114

CC(CC(C)(C)C)CP(=O)([O-])CC(C)CC(C)(C)C.CCCCCCCCCCCCCC[P+](CCCCCC)(CCCCCC)CCCCCC
[1]
Details | mass density [kg/m3] | viscosity [mPa·s]
278.15 K | 897.3 | 5574.5
283.15 K | 894.3 | 3805.5
288.15 K | 891.3 | 2675.3
293.15 K | 888.3 | 1918.2
298.15 K | 885.3 | 1401.7
303.15 K | 882.3 | 1041.5
308.15 K | 879.3 | 785.77
313.15 K | 876.3 | 601.35
318.15 K | 873.4 | 466.24
323.15 K | 870.4 | 365.83
328.15 K | 867.5 | 290.28
333.15 K | 864.6 | 232.76
338.15 K | 861.7 | 188.43
343.15 K | 858.9 | 153.95
348.15 K | 856 | 126.77
353.15 K | 853.2 | 105.22
358.15 K | 850.3 | 87.92
363.15 K | 847.5 | 73.91

CCCCCCCCCCCCCC[P+](CCCCCC)(CCCCCC)CCCCCC.[Br-] [tetradecyltrihexylphosphonium bromide]
[1]
Details | mass density [kg/m3] | viscosity [mPa·s]
278.15 K | 967.5 | 16955
283.15 K | 964.4 | 10457
288.15 K | 961.3 | 6688.3
293.15 K | 958.2 | 4421.3
298.15 K | 955.2 | 2988.4
303.15 K | 952.1 | 2065.2
308.15 K | 949 | 1456.3
313.15 K | 946 | 1046.7
318.15 K | 942.9 | 764.04
323.15 K | 939.8 | 568.06
328.15 K | 936.7 | 428.98
333.15 K | 933.7 | 328.56
338.15 K | 930.7 | 255.03
343.15 K | 927.6 | 200.46
348.15 K | 924.6 | 159.44
353.15 K | 921.7 | 128.21
358.15 K | 918.7 | 104.15
363.15 K | 915.7 | 85.44

CCCCCCCCCCCCCC[P+](CCCCCC)(CCCCCC)CCCCCC.[Cl-] [trihexyl(tetradecyl)phosphonium chloride]
[1]
Details | mass density [kg/m3] | viscosity [mPa·s]
278.15 K | 901.6 | 15339
283.15 K | 898.6 | 9447.7
288.15 K | 895.7 | 6088.5
293.15 K | 892.8 | 4030.4
298.15 K | 889.9 | 2729.1
303.15 K | 887 | 1890.3
308.15 K | 884 | 1336.4
313.15 K | 881.1 | 962.5
318.15 K | 878.2 | 705.75
323.15 K | 875.3 | 525.98
328.15 K | 872.3 | 398.19
333.15 K | 869.5 | 305.73
338.15 K | 866.6 | 237.78
343.15 K | 863.7 | 187.39
348.15 K | 860.8 | 149.21
353.15 K | 858 | 120.11
358.15 K | 855.1 | 97.66
363.15 K | 852.3 | 80.17

CCCCCCCCCC(=O)[O-].CCCCCCCCCCCCCC[P+](CCCCCC)(CCCCCC)CCCCCC [trihexyltetradecylphosphonium decanoate]
[1]
Details | mass density [kg/m3] | viscosity [mPa·s]
278.15 K | 893.2 | 1915.7
283.15 K | 890 | 1292.9
288.15 K | 886.9 | 902.16
293.15 K | 883.7 | 644.41
298.15 K | 880.6 | 471.51
303.15 K | 877.5 | 352.09
308.15 K | 874.4 | 267.73
313.15 K | 871.3 | 207.27
318.15 K | 868.3 | 163
323.15 K | 865.3 | 130.01
328.15 K | 862.2 | 104.89
333.15 K | 859.2 | 85.75
338.15 K | 856.2 | 70.93
343.15 K | 853.2 | 59.27
348.15 K | 850.2 | 49.99
353.15 K | 847.3 | 42.54
358.15 K | 844.3 | 36.46
363.15 K | 841.3 | 31.47
